Read-outs that look alike come from different tables or passages of the source. Blank lines part the entries; values can stand above or below the compound they belong to.
Tests used:
SW620C = experiment: Neutral red uptake antiproliferative assay, MDR line SW620C; type: cell-based, human; conditions: for IC50: exposure time 72 h, n = 3, ABCG2-overexpressing MDR line
From the text: (§1) Next, we evaluated the cytotoxicity of the synthesized complexes toward the panel of six multidrug-resistant (MDR) cell lines derived from SW620 and characterized by the overexpression of various ABC proteins, namely, ABCG2 (SW620C and SW620Mito), ABCC1 (SW620M and SW620E), and ABCB1 (SW620D, SW620E, and SW620V) (Table 3, Figures S29 and S32). […] The activity of the complexes derived from the ligand (S)-2 is also considerably higher than that of the compounds containing the ligand (R)-2. The cytotoxicity of both rhodium 4c and iridium 4d complexes is higher than that of amine (S)-1. In the case of 4c, the increase in cytotoxicity is low, with the highest value of 3.7-fold for the SW620Mito line. […] Compound 4d also exerts a 2.1- and 2.6-fold higher cytotoxicity than […] against the SW620C and SW620D lines.
(§2) For this purpose, neutral red uptake assay was performed. […] The results were presented as a percentage of control.

HCT116 = experiment: cells; conditions: for IC50: read-out: IC50 HCT116
From the text: (§3) To assess the impact of conjugating half-sandwich complexes with amines 1 via an imine-pyridine ligand on biological activity, we examined the antiproliferative potential of (R)- and (S)-1 and organometallic conjugates 3a–d and 4a–d in selected human cancer cell lines: alveolar basal epithelial cell adenocarcinoma (A549), colorectal adenocarcinomas (Colo205 and SW620), colorectal carcinoma (HCT116), hepatocellular carcinoma (HepG2), and breast adenocarcinoma (MCF7). The choice of cell lines was dictated by results of previously published clinical trials on ispinesib.[49],[50]
(§4) For this purpose, neutral red uptake assay was performed. 10^4 of cells were seeded per well of a 96-well plate and left overnight to allow cells to attach to the surface. Then, the cells were exposed to a desired concentration of tested compounds. Stock solutions were prepared in DMSO and were used immediately after preparation. The final concentration of DMSO was constant and nontoxic (0.1% v/v). After 70 h of culture, neutral red was added to the final concentration of 1 mM. After 2 h of incubation with the dye, the medium was aspirated and cells were washed with ice-cold PBS. The dye was released using 100 μL of the solubilizer (1% acetic acid in 50% ethanol) on an orbital shaker (10 min). The absorbance at 540 nm was measured using an EnVision multilabel plate reader (PerkinElmer). […] The IC90 and IC50 parameters were calculated using GraphPad Prism v9 software using the five-parameter nonlinear logistic regression model.

SW620Mito = experiment: Neutral red uptake antiproliferative assay, MDR line SW620Mito; type: cell-based, human; conditions: for IC50: exposure time 72 h, n = 3, ABCG2-overexpressing MDR line
From the text: as §1, §2

SW620D = experiment: Neutral red uptake antiproliferative assay, MDR line SW620D; type: cell-based, human; conditions: for IC50: exposure time 72 h, n = 3, ABCB1-overexpressing MDR line
From the text: as §1, §2

SW620E = experiment: Neutral red uptake antiproliferative assay, MDR line SW620E; type: cell-based, human; conditions: for IC50: exposure time 72 h, n = 3, ABCC1- and ABCB1-overexpressing MDR line
From the text: as §1, §2

SW620 = experiment: Neutral red uptake antiproliferative assay, SW620; type: cell-based, human; conditions: for IC50: exposure time 72 h, n = 3, 95% CI given
From the text: as §3
(§5) Cell lines used in this study were purchased from the American Type Culture Collection via LGC Standards. Human normal lung fibroblasts (MRC-5), alveolar basal epithelial cell adenocarcinoma (A549), colorectal adenocarcinoma (Colo205), hepatocellular carcinoma (HepG2), breast adenocarcinoma (MCF7), and colorectal adenocarcinoma (SW620) and its MDR variants[55] were cultured in standard conditions (37 °C, 5% CO2, 100% relative humidity) in high glucose DMEM medium supplemented with GlutaMax, HEPES (ThermoFisher Scientific) and 10% fetal bovine serum (EURx, Poland). All cell lines were tested for Mycoplasma contamination using a MycoProbe mycoplasma detection kit (R&D System).
as §4

A549 = experiment: Neutral red uptake antiproliferative assay, A549; conditions: for IC50: read-out: IC50 A549
From the text: as §3, §5, §4

Colo205 = experiment: cells; conditions: for IC50: read-out: IC50 Colo205
From the text: as §3, §5, §4

HepG2 = experiment: cells; conditions: for IC50: read-out: IC50 HepG2
From the text: as §3, §5, §4

MCF7 = experiment: cells; conditions: for IC50: read-out: IC50 MCF7
From the text: as §3, §5, §4

SW620M = experiment: Neutral red uptake antiproliferative assay, MDR line SW620M; type: cell-based, human; conditions: for IC50: exposure time 72 h, n = 3, ABCC1-overexpressing MDR line
From the text: as §1, §2

SW620 cells = experiment: Cell cycle distribution by flow cytometry, SW620; type: cell-based, human; conditions: concentration equal to IC75 of (S)-1 / (R)-1, mean ± SEM, n = 3; for Cell cycle fraction G1, 24 h / Cell cycle fraction G2/M, 24 h / Cell cycle fraction S, 24 h: SW620, 24 h; for Cell cycle fraction G1, 48 h / Cell cycle fraction G2/M, 48 h / Cell cycle fraction S, 48 h: SW620, 48 h
Procedure: Ispinesib leads to the formation of monopolar mitotic spindles and a blockade of chromosome segregation in cancer cells. Using flow cytometry, we assessed the cell cycle distribution in the SW620 and SW620E cells exposed to the studied compounds for 24 and 48 h. […] Both complexes, 3c and 3d, decrease the percentage of cells in the G1/G0 phase and increase the percentage in the S and G2/M phases. […] Furthermore, prolonged exposure to the compounds increases the percentage of cells in the G2/M phase, with the most intensive effect observed for 3c and 3d.
SW620 and SW620E cells lines (vulnerable and resistant variants, respectively) were seeded in 6-well plates at a density of 10^5 cells per well. […] After 24 h, the cells were trypsinized and fixed with ice-cold 70% v/v ethanol. The cells were stained with 75 μM propidium iodide with 50 Kunitz units of RNase A in PBS for 30 min at 37 °C. All samples were analyzed using a LSRII flow cytometer (Becton Dickinson) at a PE channel ([…]). Cell cycle phase distribution was determined using a built-in cell cycle module (Watson pragmatic algorithm) by FlowJo 7.6.1 software.

SW620V = experiment: Neutral red uptake antiproliferative assay, MDR line SW620V; type: cell-based, human; conditions: for IC50: exposure time 72 h, n = 3, ABCB1-overexpressing MDR line
From the text: as §1, §2

[1] = vs corresponding amine (R)-1 or (S)-1, 72 h
[2] = exposure time 72 h, n = 3, 95% CI given

IC50 (SW620C): 2.97 µM | activity factor IC50(1)/IC50(3a–4d), SW620C (SW620C; [1]): (1.12) | IC50 (HCT116; [2]): 2.94 µM | activity factor IC50(1)/IC50(3a–4d), HCT116 (HCT116; [1]): (2.74) | IC50 (SW620Mito): 1050 nM | activity factor IC50(1)/IC50(3a–4d), SW620Mito (SW620Mito; [1]): (3.72) | IC50 (SW620D): 6.07 µM | activity factor IC50(1)/IC50(3a–4d), SW620D (SW620D; [1]): (0.684) | IC50 (SW620E): 6.2 µM | activity factor IC50(1)/IC50(3a–4d), SW620E (SW620E; [1]): (0.653) | IC50 (SW620): 2240 nM | activity factor IC50(1)/IC50(3a–4d), SW620 (SW620; [1]): (1.28) | IC50 (A549; [2]): 3.79 µM | activity factor IC50(1)/IC50(3a–4d), A549 (A549; [1]): (1.86) | IC50 (Colo205; [2]): 2.89 µM | activity factor IC50(1)/IC50(3a–4d), Colo205 (Colo205; [1]): (2.10) | IC50 (HepG2; [2]): 1150 nM | activity factor IC50(1)/IC50(3a–4d), HepG2 (HepG2; [1]): (2.09) | IC50 (MCF7; [2]): 1500 nM | activity factor IC50(1)/IC50(3a–4d), MCF7 (MCF7; [1]): (2.61) | IC50 (SW620M): 2250 nM | activity factor IC50(1)/IC50(3a–4d), SW620M (SW620M; [1]): (1.54) | IC50 (SW620V): 2.98 µM | activity factor IC50(1)/IC50(3a–4d), SW620V (SW620V; [1]): (1.15)
Compound: CC(C)[C@H](N=Cc1ccccn1)c1nc2cc(Cl)ccc2c(=O)n1Cc1ccccc1.Cc1c(C)c(C)[c-](C)c1C.F[P-](F)(F)(F)(F)F.[Cl-].[Rh+3] [Compound 4c, [(Cp*)Rh((S)-2)Cl]PF6]
increase in cytotoxicity vs corresponding amine 1, SW620Mito (SW620Mito; rounded value): 3.7 fold | Cell cycle fraction G1, 24 h (SW620 cells): 52.6 ± 1.9% | Cell cycle fraction G2/M, 24 h (SW620 cells): 32.7 ± 2.0% | Cell cycle fraction S, 24 h (SW620 cells): 13.6 ± 0.3% | Cell cycle fraction G1, 48 h (SW620 cells): 41.6 ± 1.0% | Cell cycle fraction G2/M, 48 h (SW620 cells): 43.8 ± 1.4% | Cell cycle fraction S, 48 h (SW620 cells): 13.7 ± 0.4%

IC50 (SW620C; Homo sapiens): 3.33 µM | IC50 (HCT116; Homo sapiens, HCT-116, 72 h): 8.06 µM | IC50 (SW620Mito; Homo sapiens): 3910 nM | IC50 (SW620D; Homo sapiens): 4.15 µM | IC50 (SW620E; Homo sapiens): 4.05 µM | IC50 (SW620; Homo sapiens, SW-620): 2870 nM | IC50 (A549; Homo sapiens, A549, 72 h): 7.05 µM | IC50 (Colo205; Homo sapiens, COLO 205, 72 h): 6.07 µM | IC50 (HepG2; Homo sapiens, HepG2, 72 h): 2400 nM | IC50 (MCF7; Homo sapiens, MCF7, 72 h): 3910 nM | IC50 (SW620M; Homo sapiens): 3460 nM | IC50 (SW620V; Homo sapiens): 3.44 µM
Compound: CC(C)[C@H](N)c1nc2cc(Cl)ccc2c(=O)n1Cc1ccccc1 [(S)-1, reference compound]
Cell cycle fraction G1, 24 h (SW620 cells): 41.8 ± 1.2% | Cell cycle fraction G2/M, 24 h (SW620 cells): 37.1 ± 1.2% | Cell cycle fraction S, 24 h (SW620 cells): 19.5 ± 0.3% | Cell cycle fraction G1, 48 h (SW620 cells): 35.2 ± 1.1% | Cell cycle fraction G2/M, 48 h (SW620 cells): 42.5 ± 0.6% | Cell cycle fraction S, 48 h (SW620 cells): 19.9 ± 0.4%

Source: paper PMC11044151, “Development of Half-Sandwich Ru, Os, Rh, and Ir Complexes Bearing the Pyridine-2-ylmethanimine Bidentate Ligand Derived from 7-Chloroquinazolin-4(3H)-one with Enhanced Antiproliferative Activity” (ACS Omega, 2024)
